Results as given in patent publication US20250249006A1, “TREATMENT” (Verona Pharma PLC, priority 2024, published 2025).

Columns and labels:
Format in all cases: in vivo
[1] = test system: patients aged 40-80 years with moderate to severe COPD; test: Clinical studies, ensifentrine vs placebo: moderate/severe COPD exacerbations; details: nominally statistically significant
Experimental: (§1) Clinical studies were conducted to determine the efficacy of ensifentrine in treating COPD compared with placebo. Ensifentrine was administered by nebuliser at a dose of 3 mg twice daily (BID) for 24 weeks. The studies were multi-centre, randomized, double-blind, parallel-group, placebo-controlled trials.
(§2) The study population included patients aged 40-80 years with moderate to severe COPD (FEV1 30%-70% p.n., FEV1/forced vital capacity (FVC) ratio<0.7, with mMRC≥2). The randomization stratified (a) the use of stable background maintenance LAMA or LABA therapy use (approx. 50%. yes or no) and (b) cigarette smoking (current or former). Inhaled corticosteroid (ICS) maintenance therapy was permitted in up to 20% of patients under certain provisions.
COPD exacerbations were defined as worsening of 2 or more major symptoms (dyspnea, sputum volume, and sputum purulence) or worsening of any 1 major symptom together with any 1 of the following minor symptoms: sore throat, colds, fever without other cause, and increased cough or wheeze for at least 2 consecutive days. COPD exacerbations were considered to be of moderate severity if treatment with systemic corticosteroids and/or antibiotics was required and were considered to be severe if hospitalization was required.

[2] = test system: patients aged 40-80 years with moderate to severe COPD; test: Clinical studies, ensifentrine vs placebo: lung function (average FEV1 AUC0-12h)
Experimental: as §1, §2
The primary endpoint was change from baseline in average FEV1 area under the curve AUC0-12h post-dose at week 12. Also assessed were COPD symptoms and quality of life (QoL) in patients showing lower responses in terms of lung function, and in particular patients with: (i) improvement in average FEV1 AUC0-12h of less than 100 mL and (ii) improvement in morning trough FEV1 of less than 100 mL, less than 60 mL or less than 40 mL. […]
Average FEV1 AUC0-12h is defined as area under the curve over 12 hours of the FEV1, divided by 12 hours. […] Morning trough FEV1 is defined as the FEV1 assessed at 11.5 to 12 hours following the prior evening dose.

[3] = test system: patients aged 40-80 years with moderate to severe COPD; test: Clinical studies, ensifentrine vs placebo: quality of life responders (SGRQ −4 units) in patients with low FEV1 response; details: for Ensifentrine vs. Placebo Odds Ratio, SGRQ (−4 Unit) Responders / Odds in favor of a response, SGRQ (−4 Unit) Responders: logistic regression; for Ensifentrine vs. Placebo Odds Ratio, SGRQ (−4 Unit) Responders / Odds in favor of a response, SGRQ (−4 Unit) Responders / % SGRQ (−4 Unit) Responders / % responders, SGRQ (−4 Units) Responders / Ensifentrine v placebo Odds Ratio, SGRQ (−4 Units) Responders / Odds in favour of response, SGRQ (−4 Units) Responders: pooled mITT; for % SGRQ (−4 Unit) Responders / % responders, SGRQ (−4 Units) Responders: 3 mg BID nebuliser; for % responders, SGRQ (−4 Units) Responders / Ensifentrine v placebo Odds Ratio, SGRQ (−4 Units) Responders / Odds in favour of response, SGRQ (−4 Units) Responders: improvement in morning trough FEV1 less than 40 mL (table line prints <60 mL); for proportion of patients with a clinically important improvement in QoL: over 24 weeks
Experimental: as §1, §2
The primary endpoint was change from baseline in average FEV1 area under the curve AUC0-12h post-dose at week 12. Also assessed were COPD symptoms and quality of life (QoL) in patients showing lower responses in terms of lung function, and in particular patients with: (i) improvement in average FEV1 AUC0-12h of less than 100 mL and (ii) improvement in morning trough FEV1 of less than 100 mL, less than 60 mL or less than 40 mL.
COPD symptoms were assessed using Evaluating Respiratory Symptoms (E-RS; EXACT-Respiratory Symptoms, The minimal clinically important difference (MCID) of the E-RS is a total score of −2 units. User Manual (Version 3.0), October 2014) and Transitional Dyspnea Index (TDI; Mahler et al, The MCID of the transition dyspnea index is a total score of one unit. COPD 2005, 2:99-103.) and QoL was assessed using the St. George's Respiratory Questionnaire (SGRQ; Jones, St. George's Respiratory Questionnaire: The MCID of the SGRQ is a total score of −4 units. COPD 2005, 2:75-79.).

[4] = average FEV1 AUC0-12h <100 mL at Week 12, Week 6
[5] = average FEV1 AUC0-12h <100 mL at Week 12, Week 12
[6] = average FEV1 AUC0-12h <100 mL at Week 12, Week 24
[7] = morning trough FEV1 <60 mL at Week 6, Week 6
[8] = morning trough FEV1 <60 mL at Week 12, Week 12
[9] = morning trough FEV1 <60 mL at Week 24, Week 24
[10] = morning trough FEV1 <100 mL at Week 6, Week 6
[11] = morning trough FEV1 <100 mL at Week 12, Week 12

COc1cc2c(cc1OC)-c1c/c(=N\c3c(C)cc(C)cc3C)n(CCNC(N)=O)c(=O)n1CC2 [Ensifentrine, N-(2-{(2E)-9,10-dimethoxy-4-oxo-2-[(2,4,6-trimethylphenyl)imino]-6,7-dihydro-2H-pyrimido[6,1-a]isoquinolin-3(4H)-yl}ethyl)urea]
reduction in moderate/severe exacerbation rate and risk (time to first event) vs placebo ([1]; patients with improvement in average FEV1 AUC0-12h less than 100 mL): 37%
reduction in moderate/severe exacerbation rate and risk (time to first event) vs placebo ([1]; patients with improvement in morning trough FEV1 less than 100 mL): approximately 40%
primary endpoint of average FEV1 (AUC)0-12h ([2]; Week 12, 3 mg BID nebuliser vs placebo): met
improvement in lung function ([2]; all subgroups): statistically significant
subjects achieving QoL MCID ([3]; FEV1 AUC0-12h <100 mL or morning trough FEV1 <100, <60 or <40 mL, overall conclusion): ~50%
Ensifentrine vs. Placebo Odds Ratio, SGRQ (−4 Unit) Responders [3, 4]: 1.32
Odds in favor of a response, SGRQ (−4 Unit) Responders [3, 4]: 1.10
Ensifentrine vs. Placebo Odds Ratio, SGRQ (−4 Unit) Responders [3, 5]: 1.31
Odds in favor of a response, SGRQ (−4 Unit) Responders [3, 5]: 0.92
Ensifentrine vs. Placebo Odds Ratio, SGRQ (−4 Unit) Responders [3, 6]: 1.04
Odds in favor of a response, SGRQ (−4 Unit) Responders [3, 6]: 0.95
% SGRQ (−4 Unit) Responders ([3]; average FEV1 AUC0-12h <100 mL at Week 12, responders at Week 6): 45.4%
% SGRQ (−4 Unit) Responders ([3]; average FEV1 AUC0-12h <100 mL at Week 12, responders at Week 12): 45.4%
% SGRQ (−4 Unit) Responders ([3]; average FEV1 AUC0-12h <100 mL at Week 12, responders at Week 24): 48.5%
% responders, SGRQ (−4 Units) Responders ([3]; Week 6): 42.6%
Ensifentrine v placebo Odds Ratio, SGRQ (−4 Units) Responders ([3]; Week 6): 1.260
Odds in favour of response, SGRQ (−4 Units) Responders ([3]; Week 6): 0.903
% responders, SGRQ (−4 Units) Responders ([3]; Week 12): 44.7%
Ensifentrine v placebo Odds Ratio, SGRQ (−4 Units) Responders ([3]; Week 12): 1.316
Odds in favour of response, SGRQ (−4 Units) Responders ([3]; Week 12): 0.802
% responders, SGRQ (−4 Units) Responders ([3]; Week 24): 48.7%
Ensifentrine v placebo Odds Ratio, SGRQ (−4 Units) Responders ([3]; Week 24): 1.138
Odds in favour of response, SGRQ (−4 Units) Responders ([3]; Week 24): 0.797
proportion of patients with a clinically important improvement in QoL ([3]; increase in average FEV1 AUC0-12h less than 100 mL at Week 12): half
proportion of patients with a clinically important improvement in QoL ([3]; increase in morning trough FEV1 less than 100 mL at Week 12): half
Ensifentrine vs. Placebo Odds Ratio, SGRQ (−4 Unit) Responders [3, 7]: 1.25
Odds in favor of a response, SGRQ (−4 Unit) Responders [3, 7]: 0.98
% SGRQ (−4 Unit) Responders ([3]; morning trough FEV1 <60 mL at Week 6, responders at Week 6): 43.4%
Ensifentrine vs. Placebo Odds Ratio, SGRQ (−4 Unit) Responders [3, 8]: 1.28
Odds in favor of a response, SGRQ (−4 Unit) Responders [3, 8]: 0.82
% SGRQ (−4 Unit) Responders ([3]; morning trough FEV1 <60 mL at Week 12, responders at Week 12): 45.1%
Ensifentrine vs. Placebo Odds Ratio, SGRQ (−4 Unit) Responders [3, 9]: 1.07
Odds in favor of a response, SGRQ (−4 Unit) Responders [3, 9]: 0.79
% SGRQ (−4 Unit) Responders ([3]; morning trough FEV1 <60 mL at Week 24, responders at Week 24): 48.2%
Ensifentrine vs. Placebo Odds Ratio, SGRQ (−4 Unit) Responders [3, 10]: 1.29
Odds in favor of a response, SGRQ (−4 Unit) Responders [3, 10]: 1.09
% SGRQ (−4 Unit) Responders ([3]; morning trough FEV1 <100 mL at Week 6, responders at Week 6): 45.0%
Ensifentrine vs. Placebo Odds Ratio, SGRQ (−4 Unit) Responders [3, 11]: 1.34
Odds in favor of a response, SGRQ (−4 Unit) Responders [3, 11]: 0.80
% SGRQ (−4 Unit) Responders ([3]; morning trough FEV1 <100 mL at Week 12, responders at Week 12): 46.3%
Ensifentrine vs. Placebo Odds Ratio, SGRQ (−4 Unit) Responders ([3]; morning trough FEV1 <100 mL at Week 24, Week 24): 1.03
